System: PC9-ER cells
Experiment: Cell viability (MTT) of Erlotinib-resistant cells
Details: Homo sapiens, PC-9/ER, 72 h, read-out: Inhibition of PC9-ER cell proliferation, Erlotinib alone

C#Cc1cccc(Nc2ncnc3cc(OCCOC)c(OCCOC)cc23)c1 [Erlotinib]
inhibition at 0.1 µM: 8%

— PMC8890653, “Cell-penetrating peptides containing the progesterone receptor polyproline domain inhibits EGF signaling and cell proliferation in lung cancer cells” (PLoS ONE, 2022)
